Assay [1] has as its target T1, E. coli DNA gyrase (Escherichia coli, UniProt P0AES6).
T1 construct: made in house; host or cells: E. coli BL21 (DE3)
In words: Test for evaluating the activity of inhibiting E. coli DNA gyrase enzyme (Method 1, supercoiling, Inspiralis enzyme). In kind it is biochemical. As for the experimental part:
Test Example 1-1 Test for Evaluating the Activity of Inhibiting E. coli DNA Gyrase Enzyme (Method 1)
The enzymatic activity of E. coli DNA gyrase was measured by a method comprising reacting DNA gyrase and its substrate, relaxed pBR322 (Inspiralis), in the presence of ATP and detecting the post-reaction supercoiled pBR322/relaxed pBR322 ratio with H19 (Profoldin).
Specifically, to 1 ng/μL of relaxed pBR322, E. coli DNA gyrase enzyme (Inspiralis) was added at a final concentration of 0.006 U/μL and the mixture was incubated for 60 minutes at room temperature. This reaction was carried out in 20 mmol/L tris-HCl buffered solution (pH 8.0) comprising 0.5 mmol/L ATP, 0.005% bridge 35, 35 mmol/L ammonium acetate, 8 mmol/L magnesium chloride, 4.6% glycerol, and 1 mmol/L dithiothreitol. To the reaction mixture, H19 was added to bring the reaction to an end; thereafter, the supercoiled pBR322/relaxed pBR322 ratio was detected at excitation wavelength/emission wavelength=485 nm/535 nm. An inhibition curve was obtained by allowing the analyte compound to be present at varying concentrations during the reaction described above. […] The test results of interest are shown in [Table 20-1] and [Table 20-2].

The test system of a further assay is E. Coli ATCC 25922. In words: Test for evaluating antibacterial activity (E. coli), broth microdilution MIC. In kind it is cell-based. Conditions: Escherichia coli, ATCC25922; 35° C., 18 hours, cation-adjusted Mueller-Hinton medium. The essentials:
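Broth microdilution per modified CLSI method in cation-adjusted Mueller-Hinton medium. Inoculum from overnight heart infusion agar growth, McFarland 0.5 suspension diluted 10-fold; incubation 35° C for 18 hours. MIC taken as lowest drug concentration with no visible growth.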
For orientation: Broth dilution looks for growth in wells or tubes with falling amounts of substance.

Assay [2] concerns the target T1, E. coli DNA gyrase. Nature of the assay: Test for evaluating the activity of inhibiting E. coli DNA gyrase enzyme (Method 2, supercoiling, recombinant gyrA/gyrB complex). The assay is classed as biochemical. The method in brief: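 Recombinant E. coli gyrA/gyrB complex (His-tagged, BL21(DE3)-expressed, Ni-NTA purified; 0.135 nmol/mL final) supercoiled relaxed pBR322 (1 ng/μL) with 0.5 mmol/L ATP in pH 8.0 Tris buffer, 60 min at room temperature. H19 stopped the reaction; supercoiled/relaxed ratio read at 485/535 nm, inhibition curves built from varying compound concentrations.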

In assay [3] the test system is N. gonorrhoeae ATCC 49226. Nature of the assay: Test for evaluating antibacterial activity (N. gonorrhoeae), broth microdilution MIC. The settings on record: Neisseria gonorrhoeae, ATCC49226; 35° C., 24 hours, gonococcal broth. The assay is classed as cell-based. The procedure:
Minimum inhibitory concentration (MIC) was measured using the broth microdilution method described below in accordance with a modification of the method of Geers et al. (Antimicrob. Agents. Chemother. (1989), 33, 233-234).
After sterilization, BD. Difco supplement C was added to give a final concentration of 1%, whereby a gonococcal broth was prepared.
Bacterial cells under test were cultured overnight on a chocolate II agar medium, scraped off and suspended at a concentration equivalent to McFarland 0.5 turbidity; the suspension thus obtained was diluted 5 folds to give a liquid inoculum. The inoculum (0.005 mL) was inoculated on a gonococcal broth containing the analyte compound and cultured at 35° C. for 24 hours. A minimum drug concentration at which no bacterial growth was macroscopically visible was designated MIC.

Setting [4] is: Method 1, read-out: E. Coli Gyrase supercoiling IC50.

Structures are written as SMILES. Values after ≈ are worked out from the molar mass of the structure shown. Counter-ions that a name gives are not always drawn.

The term IC50 denotes the midpoint of a concentration-inhibition curve. By MIC is commonly meant the smallest concentration in the dilution series that meets the test's criterion for growth inhibition. A lower MIC goes with greater potency. Consider `CNc1cc(F)cc2cc(C(=O)Nc3cnc(NCCN4CCN(C)CC4)nc3)c(=O)[nH]c12` [Example 51, 6-fluoro-8-(methylamino)-N-(2-{[2-(4-methylpiperazine-1-yl)ethyl]amino}pyrimidine-5-yl)-2-oxo-1,2-dihydroquinoline-3-carboxamide], for which the concentration for half-maximal inhibition (IC50) on E. coli DNA gyrase [1] (setting [4]) stood at 5.46 nM. In addition, in the assay on E. Coli ATCC 25922, inhibition of growth (MIC) required 16 µg/mL (≈ 35.2 µM).

For `CNc1cccc2cc(C(=O)Nc3cnc(C(=O)O)nc3)c(=O)[nH]c12` [Example 20, 5-{[8-(methylamino)-2-oxo-1,2-dihydroquinoline-3-carbonyl]amino}pyrimidine-2-carboxylic acid], at E. coli DNA gyrase [1] (setting [4]), the half-maximal inhibitory concentration (IC50) was found to be 1.19 nM. The same molecule yielded a minimum inhibitory concentration (MIC) against E. Coli ATCC 25922 greater than 16 µg/mL.

In the case of `CNc1cc(F)cc2cc(C(=O)Nc3cnc(NCCN)nc3)c(=O)[nH]c12.O=CO` [Example 59, N-{2-[(2-aminoethyl)amino]pyrimidine-5-yl}-6-fluoro-8-(methylamino)-2-oxo-1,2-dihydroquinoline-3-carboxamide-formate], on E. coli DNA gyrase [1], the IC50 stood at 14.7 nM. In addition, the minimum inhibitory concentration (MIC) against E. Coli ATCC 25922 was greater than 2 µg/mL.

As to `CNc1cc(F)cc2cc(C(=O)Nc3cnc(C(=O)NCCN4CCOCC4)nc3)c(=O)[nH]c12` [Example 53, 6-fluoro-8-(methylamino)-N-(2-{[2-(morpholine-4-yl)ethyl]carbamoyl}pyrimidine-5-yl)-2-oxo-1,2-dihydroquinoline-3-carboxamide], the half-inhibitory concentration (IC50) at E. coli DNA gyrase [1] (setting [4]) was 1.49 nM. In the assay with E. Coli ATCC 25922, this molecule showed an MIC of 0.25 µg/mL (≈ 0.533 µM).

In general, inhibition refers to the percentage by which the read-out fell short of the control. Read a low inhibition as little suppression. `CNc1cc(F)cc2cc(C(=O)NCCc3ccccc3)c(=O)[nH]c12` [Example 78, 6-fluoro-8-(methylamino)-2-oxo-N-(2-phenylethyl)-1,2-dihydroquinoline-3-carboxamide] had an inhibition at 0.3 µM at E. coli DNA gyrase [1] (Method 1, at 300 nM) of 12%.

In the case of `CNc1cc(F)cc2cc(C(=O)Nc3ccc(C(=O)NCC4CCN(CCN)CC4)cc3)c(=O)[nH]c12` [Example 57, N-(4-({[1-(2-aminoethyl)piperidine-4-yl]methyl}carbamoyl)phenyl]-6-fluoro-8-(methylamino)-2-oxo-1,2-dihydroquinoline-3-carboxamide-dihydrochloride], the IC50 at E. coli DNA gyrase [1] (setting [4]) came to 3.62 nM. In the assay with E. Coli ATCC 25922, the MIC was greater than 16 µg/mL.

`CNc1cccc2cc(C(=O)Nc3ccc(C(=O)O)cc3OCCCN)c(=O)[nH]c12.O=CO` [Example 48, 3-(3-aminopropoxy)-4-{[8-(methylamino)-2-oxo-1,2-dihydroquinoline-3-carbonyl]amino} benzoic acid-formate] returned an IC50 at E. coli DNA gyrase [1] of 286 nM. The same molecule displayed a minimal inhibitory concentration (MIC) against E. Coli ATCC 25922 greater than 16 µg/mL.

Consider `CNc1cc(F)cc2cc(C(=O)Nc3cnc(NCCN4CCOCC4)nc3)c(=O)[nH]c12` [Example 69, 6-fluoro-8-(methylamino)-N-(2-{[2-(morpholine-4-yl)ethyl]amino}pyrimidine-5-yl)-2-oxo-1,2-dihydroquinoline-3-carboxamide], for which the IC50 at E. coli DNA gyrase [1] (setting [4]) turned out to be 7 nM. The molecule further came in with a minimum inhibitory concentration (MIC) against E. Coli ATCC 25922 of 8 µg/mL (≈ 18.1 µM).

As for `CNc1cccc2cc(C(=O)Nc3ccc(C(=O)NCCCN)cc3)c(=O)[nH]c12.Cl` [Example 46, N-{4-[(3-aminopropyl)carbamoyl]phenyl}-8-(methylamino)-2-oxo-1,2-dihydroquinoline-3-carboxamide-hydrochloride], half-maximal inhibition on E. coli DNA gyrase [1] (IC50) required 7.47 nM. The MIC in the assay with E. Coli ATCC 25922 was greater than 1 µg/mL.

With `CNc1cccc2cc(C(=O)NCc3csc(NC(=O)OC(C)(C)C)n3)c(=O)[nH]c12` [Example 27, tert-butyl[4-({[8-(methylamino)-2-oxo-1,2-dihydroquinoline-3-carbonyl]amino}methyl)-1,3-thiazole-2-yl]carbamate], the half-maximal inhibitory concentration (IC50) at E. coli DNA gyrase [1] (setting [4]) is 258 nM. This molecule yielded a minimum inhibitory concentration (MIC) in the assay with E. Coli ATCC 25922 greater than 8 µg/mL.

For `CNc1cccc2cc(C(=O)Nc3cncnc3)c(=O)[nH]c12` [Example 12, 8-(methylamino)-2-oxo-N-(pyrimidine-5-yl)-1,2-dihydroquinoline-3-carboxamide], on E. coli DNA gyrase [1] (setting [4]), the IC50 turned out to be 21.1 nM. The molecule also displayed an MIC in the assay on E. Coli ATCC 25922 greater than 64 µg/mL.

Consider `CNc1cccc2cc(C(=O)NC3CCN(c4nccs4)C3)c(=O)[nH]c12` (stereo not shown) [Example 23, 8-(methylamino)-2-oxo-N-[1-(1,3-thiazole-2-yl)pyrrolidine-3-yl]-1,2-dihydroquinoline-3-carboxamide], for which the IC50 at E. coli DNA gyrase [1] (setting [4]) came out at 697 nM. In addition, the minimal inhibitory concentration (MIC) in the assay on E. Coli ATCC 25922 was greater than 4 µg/mL.

In the case of `CNc1cccc2cc(C(=O)Nc3cnc(N4CCC(N5CCN(CCO)CC5)CC4)nc3)c(=O)[nH]c12` [Example 42, N-(2-{4-[4-(2-hydroxyethyl)piperazine-1-yl]piperidine-1-yl}pyrimidine-5-yl)-8-(methylamino)-2-oxo-1,2-dihydroquinoline-3-carboxamide], the half-inhibitory concentration (IC50) on E. coli DNA gyrase [1] (setting [4]) is 73.6 nM. In the assay with E. Coli ATCC 25922, this molecule had an MIC greater than 64 µg/mL.

For the molecule `CNc1cccc2cc(C(=O)Nc3ccccc3)c(=O)[nH]c12` [Example 11, 8-(methylamino)-2-oxo-N-phenyl-1,2-dihydroquinoline-3-carboxamide], at E. coli DNA gyrase [1] (setting [4]), the IC50 came out at 245 nM. Besides, the MIC against E. Coli ATCC 25922 is greater than 64 µg/mL.

In turn, `CNc1cccc2cc(C(=O)Nc3cnc(N4CCC(N)CC4)nc3)c(=O)[nH]c12.O=CO` [Example 45, N-[2-(4-aminopiperidine-1-yl)pyrimidine-5-yl]-8-(methylamino)-2-oxo-1,2-dihydroquinoline-3-carboxamide-formate] came in with a concentration for half-maximal inhibition (IC50) against E. coli DNA gyrase [1] of 101 nM. Moreover, the MIC in the assay on E. Coli ATCC 25922 was greater than 16 µg/mL.

On to `CNc1cccc2cc(C(=O)NCc3ccccn3)c(=O)[nH]c12` [Example 21, 8-(methylamino)-2-oxo-N-[(pyridine-2-yl)methyl]-1,2-dihydroquinoline-3-carboxamide], for which the inhibition at 3 µM against E. coli DNA gyrase [1] (Method 1, at 3000 nM) stood at 44%.

`CNc1cccc2cc(C(=O)Nc3ccc(C(=O)O)cc3OCCN3CCN(C)CC3)c(=O)[nH]c12.Cl` [Example 44, 4-{[8-(methylamino)-2-oxo-1,2-dihydroquinoline-3-carbonyl]amino}-3-[2-(4-methylpiperazine-1-yl)ethoxy] benzoic acid-hydrochloride]: half-maximal inhibition against E. coli DNA gyrase [1] (IC50) was put at 373 nM. For the same molecule, in the assay on E. Coli ATCC 25922, the MIC was greater than 16 µg/mL.

Consider `CNc1cc(F)cc2cc(C(=O)Nc3cnc(N4CC(N)C4)nc3)c(=O)[nH]c12.O=CO` [Example 60, N-[2-(3-aminoazetidine-1-yl)pyrimidine-5-yl]-6-fluoro-8-(methylamino)-2-oxo-1,2-dihydroquinoline-3-carboxamide-formate], for which, at E. coli DNA gyrase [1], the concentration for half-maximal inhibition (IC50) was 11.8 nM. This molecule also yielded a minimum inhibitory concentration (MIC) in the assay with E. Coli ATCC 25922 greater than 32 µg/mL.

As for `CNc1cc(F)cc2cc(C(=O)NCCc3ccccn3)c(=O)[nH]c12` [Example 79, 6-fluoro-8-(methylamino)-2-oxo-N-[2-(pyridine-2-yl)ethyl]-1,2-dihydroquinoline-3-carboxamide], the IC50 on E. coli DNA gyrase [1] (setting [4]) was determined as 175 nM.

The molecule `Nc1cccc2cc(C(=O)Nc3cccc(C(=O)O)c3)c(=O)[nH]c12` [Example 165, 3-[(8-Amino-2-oxo-1,2-dihydroquinoline-3-carbonyl)amino]benzoic acid-trifluoroacetate] yielded an inhibition at 50 µM against E. coli DNA gyrase [1] (Method 1, at 50000 nM) of 27%.

On to `CNc1cccc2cc(C(=O)N[C@@H](Cc3c[nH]cn3)C(=O)O)c(=O)[nH]c12` [Example 13, N-[8-(methylamino)-2-oxo-1,2-dihydroquinoline-3-carbonyl]-L-histidine-trifluoroacetate], for which the IC50 at E. coli DNA gyrase [1] (setting [4]) came to 31700 nM.

As for `CNc1cc(F)cc2c(O)c(C(=O)Nc3ccc(C(=O)O)cc3CN3CCC3)c(=O)[nH]c12.O=CO` [Example 156, 3-[(azetidine-1-yl)methyl]-4-{[6-fluoro-4-hydroxy-8-(methylamino)-2-oxo-1,2-dihydroquinoline-3-carbonyl]amino}benzoic acid-formate], the IC50 at E. coli DNA gyrase [2] was found to be 13.4 nM. Besides, the values for the minimum inhibitory concentration (MIC) (in assay [3]; in the assay on E. Coli ATCC 25922) were 0.5 µg/mL and 32 µg/mL, respectively.

These data come from US20210070747A1, “2(1H)-QUINOLINONE DERIVATIVE” (priority 2017, published 2021).
